Drawing on ChEMBL document CHEMBL1144019 (Bioorg Med Chem, 2008), this text covers MIC, ED50 and Stability for one compound.

Usually ED50 stands for the dose at which the effect has come halfway, by size or by number of responders.

≈ marks a conversion by molar mass, not a printed value.

One data set deals with Streptococcus pneumoniae. Briefly: Antibacterial activity against penicillin-resistant Streptococcus pneumoniae SR-16675 by standard serial agar dilution method. It counts as functional.
Data set [1] deals with Pseudomonas aeruginosa. As to the kind of experiment: Antibacterial activity against Pseudomonas aeruginosa SR-24770 isolate by standard serial agar dilution method. It counts as functional.
Data set [2] has as its system Pseudomonas aeruginosa. As to the kind of experiment: Antibacterial activity against Pseudomonas aeruginosa SR-24797 isolate by standard serial agar dilution method. The data set is classed as functional. (In general: In agar dilution, organisms are placed on agar that contains the substance at set levels.)
The subject of data set [3] is Pseudomonas aeruginosa. Briefly: Antibacterial activity in CAZ-resistant Pseudomonas aeruginosa SR24-12 infected ICR mouse after 7 days. It counts as functional. Particulars: 168 h.
Data set [4] relates to Pseudomonas aeruginosa. As to the kind of experiment: Antibacterial activity against Pseudomonas aeruginosa SR-24816 isolate by standard serial agar dilution method. The data set is classed as functional.
Data set [5] has as its system Haemophilus influenzae. Briefly: Antibacterial activity against beta-lactamase negative ampicillin-resistant Haemophilus influenzae SR-11435 by standard serial agar dilution method. The data set is classed as functional.
The next data set has as its system Staphylococcus aureus. As to the kind of experiment: Antibacterial activity against Staphylococcus aureus Smith by standard serial agar dilution method. It counts as functional.
In a further data set the test system is Moraxella catarrhalis. As to the kind of experiment: Antibacterial activity against Moraxella catarrhalis ATCC 43617 by standard serial agar dilution method. It counts as functional.
Data set [6] has as its system Pseudomonas aeruginosa. As to the kind of experiment: Antibacterial activity against Pseudomonas aeruginosa SR-24765 isolate by standard serial agar dilution method. The data set is classed as functional.
Data set [7] concerns Escherichia coli. As to the kind of experiment: Antibacterial activity against Toho 2 producing Escherichia coli by standard serial agar dilution method. It counts as functional.
Data set [8] concerns Pseudomonas aeruginosa. As to the kind of experiment: Antibacterial activity in CAZ-susceptible Pseudomonas aeruginosa SR24 infected ICR mouse after 7 days. It counts as functional. Particulars: 168 h.
The test system of data set [9] is Enterobacter cloacae. As to the kind of experiment: Antibacterial activity against Enterobacter cloacae ATCC 13047 by standard serial agar dilution method. The data set is classed as functional.
The subject of data set [10] is Pseudomonas aeruginosa. Briefly: Antibacterial activity against Pseudomonas aeruginosa SR-24722 isolate by standard serial agar dilution method. It counts as functional.
Data set [11] deals with Pseudomonas aeruginosa. As to the kind of experiment: Antibacterial activity against AmpC hyperproducing Pseudomonas aeruginosa SR24-12 by standard serial agar dilution method. The data set is classed as functional.
Data set [12] deals with Enterobacter cloacae. Briefly: Antibacterial activity against AmpC producing Enterobacter cloacae SR-4321 by standard serial agar dilution method. The data set is classed as functional.
Data set [13] deals with Pseudomonas aeruginosa. Briefly: Antibacterial activity against imipenem-resistant Pseudomonas aeruginosa SR-6554 by standard serial agar dilution method. It counts as functional.
Data set [14] concerns Haemophilus influenzae. As to the kind of experiment: Antibacterial activity against Haemophilus influenzae ATCC 49766 by standard serial agar dilution method. The data set is classed as functional.
For data set [15], the system named is Pseudomonas aeruginosa. Briefly: Antibacterial activity against Pseudomonas aeruginosa SR-5393 by standard serial agar dilution method. The data set is classed as functional.
The subject of data set [16] is Pseudomonas aeruginosa. Briefly: Antibacterial activity against Pseudomonas aeruginosa SR-24736 isolate by standard serial agar dilution method. The data set is classed as functional.
Data set [17] deals with Escherichia coli. Briefly: Antibacterial activity against Escherichia coli SR-21003 by standard serial agar dilution method. It counts as functional.
Data set [18] in a line: Stability in presence of AmpC beta-lactamase. It counts as ADME.
Data set [19] has as its system Pseudomonas aeruginosa. As to the kind of experiment: Antibacterial activity against Pseudomonas aeruginosa SR24 by standard serial agar dilution method. It counts as functional.

In the case of `CC(C)(O/N=C(\C(=O)N[C@@H]1C(=O)N2C(C(=O)[O-])=C(C[n+]3ccccc3)CS[C@H]12)c1csc(N)n1)C(=O)O` [CEFTAZIDIME], the MIC was determined as 8 µg/mL (≈ 14.6 µM) against Streptococcus pneumoniae; 64 µg/mL (≈ 117 µM) against Pseudomonas aeruginosa [1]; 64 µg/mL (≈ 117 µM) against Pseudomonas aeruginosa [2]; 64 µg/mL (≈ 117 µM) in the data set with Pseudomonas aeruginosa [4]; 0.125 µg/mL (≈ 0.229 µM) with Haemophilus influenzae [5]; 8 µg/mL (≈ 14.6 µM) with Staphylococcus aureus. Moreover, the MIC in the data set on Moraxella catarrhalis stood at 0.063 µg/mL (≈ 0.115 µM); against Pseudomonas aeruginosa [6], 128 µg/mL (≈ 234 µM); in the data set on Escherichia coli [7], 1 µg/mL (≈ 1.83 µM); in the data set with Enterobacter cloacae [9] it was 8 µg/mL (≈ 14.6 µM); with Pseudomonas aeruginosa [10], 64 µg/mL (≈ 117 µM); with Pseudomonas aeruginosa [11] it was 64 µg/mL (≈ 117 µM). Also, the MIC stood at 64 µg/mL (≈ 117 µM) against Enterobacter cloacae [12]; 32 µg/mL (≈ 58.5 µM) with Pseudomonas aeruginosa [13]; 0.063 µg/mL (≈ 0.115 µM) in the data set with Haemophilus influenzae [14]; 2 µg/mL (≈ 3.66 µM) in the data set with Pseudomonas aeruginosa [15]; 128 µg/mL (≈ 234 µM) with Pseudomonas aeruginosa [16]; 0.25 µg/mL (≈ 0.457 µM) in the data set with Escherichia coli [17]. The compound also yielded an MIC in the data set on Pseudomonas aeruginosa [19] of 0.5 µg/mL (≈ 0.915 µM). Besides, the ED50 in the data set with Pseudomonas aeruginosa [3] is above 128 mg/kg; with Pseudomonas aeruginosa [8] it was 2.83 mg/kg. For the same compound, the Stability in data set [18] came out at 18%.
